ChEMBL document CHEMBL4177629, “Synthesis, anticancer, structural, and computational docking studies of 3-benzylchroman-4-one derivatives” (Bioorg Med Chem Lett, 2017)

What was measured:
BT-549 = assay: Cytotoxicity against human BT549 cells assessed as reduction in cell viability after 24 hrs by MTT assay; assay type: functional, cell-based; details: BT-549, 24 h
HeLa = assay: Cytotoxicity against human HeLa cells assessed as reduction in cell viability after 24 hrs by MTT assay; assay type: functional, cell-based
Vero = assay: Cytotoxicity against African green monkey Vero cells assessed as reduction in cell viability after 24 hrs by MTT assay; assay type: cell-based; details: Chlorocebus sabaeus
[1] = Inhibition of glutathione S-transferase (unknown origin); parameters: species or system Homo sapiens
Lu1 = assay: Cytotoxicity against human Lu1 cells by SRB assay; assay type: functional, cell-based
KB = assay: Cytotoxicity against human KB cells by SRB assay; assay type: functional, cell-based
SK-MEL-2 = assay: Cytotoxicity against human SK-MEL-2 cells by SRB assay; assay type: functional, cell-based

| SMILES | IC50 (BT-549) [µM] | IC50 (HeLa) [µM] | IC50 (Vero) [µM] | IC50 [1] [µM] | IC50 (Lu1) [µM] | IC50 (KB) [µM] | IC50 (SK-MEL-2) [µM] |
| --- | --- | --- | --- | --- | --- | --- | --- |
| COc1ccc(CC2COc3ccccc3C2=O)cc1O (stereo not given) | > 100 | 20.4 | > 200 |  |  |  |  |
| COc1ccc(CC2COc3cccc(OC)c3C2=O)cc1O (stereo not given) | > 200 | > 200 | > 200 |  |  |  |  |
| Cc1ccc2c(c1)OCC(Cc1ccc(O)cc1)C2=O (stereo not given) | 28.7 | 43 | > 200 |  |  |  |  |
| COc1ccc(CC2COc3ccccc3C2=O)c(OC)c1 (stereo not given) | 61.9 | 38.3 | > 200 |  |  |  |  |
| COc1ccc(CC2COc3ccccc3C2=O)cc1OC (stereo not given) | > 100 | > 100 | > 200 |  |  |  |  |
| COc1ccc(CC2COc3cc(C)ccc3C2=O)cc1 (stereo not given) | 42.1 | 68.3 | > 200 |  |  |  |  |
| O=C1c2ccccc2OCC1Cc1ccc(F)cc1 (stereo not given) | > 200 | > 200 | > 200 |  |  |  |  |
| COc1ccc2c(c1)OCC(Cc1ccc(OC)c(O)c1)C2=O (stereo not given) | 30.6 | 50.1 | > 200 |  |  |  |  |
| O=C1c2cc(O)ccc2OC[C@@H]1Cc1cc(O)cc(O)c1O |  |  |  | 16.5 |  |  |  |
| COc1ccc(CC2COc3ccc(C)cc3C2=O)cc1 (stereo not given) | > 100 | 76.3 | > 200 |  |  |  |  |
| O=C1c2ccccc2OCC1Cc1ccc(O)cc1 (stereo not given) | 20.1 | 42.8 | > 200 |  |  |  |  |
| COc1ccc2c(c1)OCC(Cc1ccc(O)cc1)C2=O (stereo not given) | 24.3 | 50.4 | > 200 |  |  |  |  |
| O=C1c2ccccc2OCC1Cc1ccc(Cl)cc1 (stereo not given) | 69.3 | 61.9 | > 200 |  |  |  |  |
| COc1ccc2c(c1)C(=O)[C@@H](Cc1cc(O)cc(O)c1O)CO2 |  |  |  | 17.1 |  |  |  |
| Cc1ccc(CC2COc3ccccc3C2=O)cc1 (stereo not given) | 42.2 | 48.9 | > 200 |  |  |  |  |
| COc1ccc(CC2COc3ccccc3C2=O)c(OC)c1OC (stereo not given) | > 100 | > 100 | > 200 |  |  |  |  |
| COc1ccc(C[C@@H]2COc3cc(OC)c(C)c(O)c3C2=O)c(O)c1 |  |  |  |  | 0.51 to 0.66 | 0.51 to 0.66 | 0.51 to 0.66 |
| COc1ccc(CC2COc3ccccc3C2=O)cc1 (stereo not given) | > 100 | > 100 | > 200 |  |  |  |  |
